Measurements taken from paper PMC10714399, “Open Source Antibiotics: Simple Diarylimidazoles Are Potent against Methicillin-Resistant Staphylococcus aureus” (ACS Infectious Diseases, 2023).
Converted amounts (≈) assume the structure as drawn.

How the values were obtained:
[1] = test system: HEK293 cells; experiment: HEK293 toxicity, 96-well dose-response (UCL; MTT or resazurin, with or without recovery); format: cell-based, human; settings: 32 μg/mL
How it was run: (§1)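 HEK293 cells seeded 48 h beforehand (700 cells for recovery runs, 5000 for non-recovery), then exposed 24 h to 2-fold dilutions from 32 μg/mL down to […] (1% DMSO top). Viability read by MTT or resazurin, either immediately or after 72 h recovery; Dmax = 100 − viability% at 32 μg/mL.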

[2] = as above; format: cell-based, human; settings: human, HEK293 cells; read-out: HEK293 CC50
How it was run: as §1

[3] = Rat hepatocyte intrinsic clearance; format: in vitro ADME; settings: rat hepatocytes, NEU; read-out: Rat Hep CLint (NEU)
[4] = Human liver microsome intrinsic clearance; format: in vitro ADME; settings: human liver microsomes, NEU

## c1ccc(-c2nc3n(c2-c2ccc4sccc4c2)CCC3)nc1 [compound 822]
[1]
  spread of Dmax values comparing recovery and non-recovery conditions: small difference

## c1ccc(-c2nc3n(c2-c2ccc4sccc4c2)CCC3)nc1 [OSA_000822]
[2]
  CC50 at 24 h: 2.9 µg/mL (≈ 9.14 µM)
[3]
  hepatocyte CLint: > 300 µL/min/1e6 cells
[4]
  HLM CLint (NEU): 61.5 uL/min/mg protein

## c1ccc(-c2nc3n(c2-c2ccc4occc4c2)CCC3)nc1 [compound 821]
[2]
  CC50 at 24 h: 1.7 µg/mL (≈ 5.64 µM)
[1]
  spread of Dmax values comparing recovery and non-recovery conditions: small difference
[3]
  hepatocyte CLint: 13.6 µL/min/1e6 cells
[4]; read-out: HLM CLint (NEU)
  microsomal CLint: 63.5 µL/min/mg
